Laboratory results taken from US5043332A, “Novel 11β-substituted -19-nor-steriods” (priority 1981, dated 1991).

Tests used:
[1] = target: T1, Progestogen receptor of the uterus of rabbits (Oryctolagus cuniculus, UniProt P06186); experiment: Progestogen receptor binding (displacement of tritiated product R); design: species or system rabbit; settings: conclusion
T1 construct: The uterus was removed, weighed and homogenized at 0° C; from tissue; host or cells: rabbit uterus, 105,000 g supernatant (estradiol-primed immature rabbits)
T1 sequence (P06186 1-930): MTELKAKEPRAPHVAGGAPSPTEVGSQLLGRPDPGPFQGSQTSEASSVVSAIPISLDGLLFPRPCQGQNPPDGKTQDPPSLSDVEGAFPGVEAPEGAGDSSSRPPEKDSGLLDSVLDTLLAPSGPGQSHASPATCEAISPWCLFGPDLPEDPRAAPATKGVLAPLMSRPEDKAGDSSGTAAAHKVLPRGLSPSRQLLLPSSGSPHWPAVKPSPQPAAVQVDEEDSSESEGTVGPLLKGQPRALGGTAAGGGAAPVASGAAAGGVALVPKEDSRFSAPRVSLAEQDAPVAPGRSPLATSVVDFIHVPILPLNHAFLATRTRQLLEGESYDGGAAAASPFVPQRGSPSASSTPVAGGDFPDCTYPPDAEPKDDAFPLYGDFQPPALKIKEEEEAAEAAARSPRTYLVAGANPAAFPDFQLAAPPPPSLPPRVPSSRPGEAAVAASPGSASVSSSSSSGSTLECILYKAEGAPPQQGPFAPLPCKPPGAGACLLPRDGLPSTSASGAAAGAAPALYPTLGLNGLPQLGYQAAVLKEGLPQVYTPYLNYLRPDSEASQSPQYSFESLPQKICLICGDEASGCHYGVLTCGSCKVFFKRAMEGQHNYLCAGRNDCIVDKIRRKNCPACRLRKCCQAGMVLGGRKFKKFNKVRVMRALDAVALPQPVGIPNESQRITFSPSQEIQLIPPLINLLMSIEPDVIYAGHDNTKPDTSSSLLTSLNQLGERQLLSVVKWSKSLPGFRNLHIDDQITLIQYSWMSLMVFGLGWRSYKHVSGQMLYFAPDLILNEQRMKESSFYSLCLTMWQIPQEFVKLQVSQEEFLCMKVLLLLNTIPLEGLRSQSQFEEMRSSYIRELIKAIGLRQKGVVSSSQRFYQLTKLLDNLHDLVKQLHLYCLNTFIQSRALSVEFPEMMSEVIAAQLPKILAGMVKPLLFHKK
Protocol: C. Progestogen receptor of the uterus of rabbits
Immature rabbits weighing about 1 kg received a cutaneous application of 25 μg of estradiol and the animals were killed 5 days later. The uterus was removed, weighed and homogenized at 0° C. with a polytetrafluoroethylene-glass Potter, in a buffered TS solution [Tris 10. mM, 0.25M of saccharose, HCl-pH of 7.4] with 1 g of tissue per 50 ml of TS. […] The concentration of tied tritiated R (B) was then measured for each incubate by the technique of adsoprtion on carbon-dextran.
The calculation of the relative affinity of […] (ARL) was identical for all of the above receptor tests. One traced the following two curves: the percentage of tied tritiated hormone B/T as a function of the logarithm of the cold hormone concentration and B/T as a function of the logarithm of the concentration of the cold test product. One determined the line of the equation. [formula]
The intersection of the I50 line and the curves permits one to determine the concentrations of the cold hormone of the reference (CH) and the cold test compound (CX) which inhibit by 50% the tieing of tritiated hormone with the receptor. The relative affinity of tieing (ARL) of the test product was determined by the equation: [formula]

[2] = tested on: granuloma; experiment: Anti-inflammatory activity, classical granuloma test (cotton pellets); assay type: in vivo, Wistar rats; settings: subcutaneous dose of 50 mg/kg
Protocol: II. Anti-inflammatory Activity
(§1) The anti-inflammatory activity of the compound of Example 4 was determined by the classical granuloma test by a modification of the Meier et al test [Experientia, Vol. 6 (1950), p. 469] in which normal female Wistar rats weighing 100 to 110 g received an implantation of 2 pellets of cotton weighing 10 mg each under the thorax skin. The subcutaneous treatment which began immediately after the implantation for 2 days was 2 injections per day. 16 hours after the last injection, the animals were killed and the pellets together with the granuloma tissue formed were weighed in the fresh state and after 16 hours at 60° C. The weight of the granuloma was obtained by subtracting the initial weight of the cotton. The thymus was also removed and weighed to determine the thymolytic activity of the test product.

[3] = tested on: thymus; experiment: Thymolytic activity in the granuloma test; assay type: in vivo, Wistar rats; settings: subcutaneous dose of 50 mg/kg
Protocol: as §1

[4] = tested on: uterine endometrium; experiment: Anti-progestomimetic activity versus progesterone, oral, change in uterine endometrium (McPhail); assay type: in vivo, immature female rabbits
Protocol: IV. Progestomimetic and Anti-progestomimetic Activity
a) Groups of immature female rabbits weighing about 1 kg had administered to them subcutaneously from day 1 to day 5, 5 μg of estradiol. The product tested was afterward administered orally from day 8 to day 11 in a volume of 0.5 cm^3 of water containing 0.5% of carboxymethyl cellulose and 0.2% of Tween. On day 12, the rabbits were sacrificed, their uteruses were retained and fixed in Bouin's solution and histologically studied.
The changes in the uterine endometrium were noted according to the method of McPhail.

[5] = tested on: uterine endometrium; experiment: Progestomimetic activity, intrauterine, change in uterine endometrium (McPhail); assay type: in vivo, immature female rabbits; settings: method of McPhail
Protocol: (§2) Groups of three immature female rabbits weighing about 1 kg were topically treated on the dorsal skin with 25 μg of estradiol in 10 μl of ethanol on day 1. On day 4 the product to be tested dissolved in 0.1 ml, of sesame oil containing 5% benzyl alcohol was introduced into a part of the uterus isolated between two ligatures. On the sixth day the animals were sacrificed, their uteruses retained and fixed in Bouin's solution for histological examination. Changes in the uterine endometrium were noted after the method of McPhail.

[6] = tested on: uterine endometrium; experiment: Anti-progestomimetic activity versus progesterone, intrauterine, change in uterine endometrium (McPhail); assay type: in vivo, immature female rabbits
Protocol: as §2

[7] = tested on: female rats; experiment: Anti-implantation and abortive activities in female rats; assay type: in vivo, rat; settings: by mouth
Protocol: V. ANTI-IMPLANTATION AND ABORTIVE ACTIVITIES IN FEMALE RATS
The first day of gestation is determined by the presence of sperm in the vagina.
The animals were sacrificed between the 5th and 8th day after the last treatment and the uterus was examined.

CC#C[C@]1(O)CC[C@H]2[C@@H]3CCC4=CC(=O)CCC4=C3[C@@H](c3ccc(N(C)C)cc3)C[C@@]21C [Example 19, 11β-[4-(N,N-dimethylamino)-phenyl]-17α-(prop-1-ynyl)-Δ^4,9-estradiene-17β-ol-3-one]
affinity for progestogen receptors (in words) [1]: very remarkable affinity
glucocorticoidal anti-inflammatory activity [2]: did not show any glucocorticoidal anti-inflammatory activity
thymolytic activity [3]: did not show any glucocorticoidal anti-inflammatory activity or thymolytic activity
CHANGE IN THE ENDOMETRIUM ([4]; progesterone 0.2 mg subcutaneously + 0.3 mg/kg by mouth): 2.8 McPHAIL UNTS
CHANGE IN THE ENDOMETRIUM ([4]; progesterone 0.2 mg subcutaneously + 1 mg/kg by mouth): 2.1 McPHAIL UNTS
CHANGE IN THE ENDOMETRIUM ([4]; progesterone 0.2 mg subcutaneously + 3 mg/kg by mouth): 1.4 McPHAIL UNTS
CHANGE IN THE ENDOMETRIUM ([4]; progesterone 0.2 mg subcutaneously + 10 mg/kg by mouth): 0.6 McPHAIL UNTS
CHANGE IN THE ENDOMETRIUM ([4]; progesterone 0.2 mg subcutaneously + 20 mg/kg by mouth): 0 McPHAIL UNTS
CHANGE IN THE ENDOMETRIUM ([5]; 30 μg/rabbit): 0
CHANGE IN THE ENDOMETRIUM ([5]; 500 μg/rabbit): 0
CHANGE IN THE ENDOMETRIUM ([6]; progesterone 10 μg + 1 μg/rabbit): 1.6
CHANGE IN THE ENDOMETRIUM ([6]; progesterone 10 μg + 3 μg/rabbit): 1.3
CHANGE IN THE ENDOMETRIUM ([6]; progesterone 10 μg + 10 μg/rabbit): 1.0
CHANGE IN THE ENDOMETRIUM ([6]; progesterone 10 μg + 30 μg/rabbit): 0.6
CHANGE IN THE ENDOMETRIUM ([6]; progesterone 10 μg + 90 μg/rabbit): 0.6
RESULTS (anti-implantation / abortion) ([7]; days 1, 2, 3, 2 mg/kg/day): No action
RESULTS (anti-implantation / abortion) ([7]; days 1, 2, 3, 10 mg/kg/day): Non-implantation
RESULTS (anti-implantation / abortion) ([7]; days 4, 5, 6, 2 mg/kg/day): Non-implantation
RESULTS (anti-implantation / abortion) ([7]; days 4, 5, 6, 10 mg/kg/day): Non-implantation
RESULTS (anti-implantation / abortion) ([7]; days 7, 8, 9, 2 mg/kg/day): Abortion
RESULTS (anti-implantation / abortion) ([7]; days 7, 8, 9, 10 mg/kg/day): Abortion
RESULTS (anti-implantation / abortion) ([7]; days 10, 11, 12, 2 mg/kg/day): Abortion
RESULTS (anti-implantation / abortion) ([7]; days 10, 11, 12, 10 mg/kg/day): Abortion
Abortion, % of the animals ([7]; days 13, 14, 15, 2 mg/kg/day): 50%
RESULTS (anti-implantation / abortion) ([7]; days 13, 14, 15, 10 mg/kg/day): Abortion
